Laboratory results taken from patent publication US6444477B1, “Assay method for detecting 5-HT2B antagonists” (Pharmagene Laboratories Limited, priority 2000, dated 2002).
Where two headings read alike, the source gives them in different places. Marks after values point to notes of the source that are not given here.

Legend:
[1] = molecular target: 5-HT receptor in human colon longitudinal muscle (Homo sapiens, UniProt P41595); assay: 5-HT-induced potentiation of electrically stimulated contractions of human colon longitudinal muscle strips; format: cell-based
5-HT2B receptor [2] = molecular target: T1, 5-HT2B receptor (Homo sapiens, UniProt P41595); settings: cited from earlier work
Target sequence in this assay (P41595 whole entry): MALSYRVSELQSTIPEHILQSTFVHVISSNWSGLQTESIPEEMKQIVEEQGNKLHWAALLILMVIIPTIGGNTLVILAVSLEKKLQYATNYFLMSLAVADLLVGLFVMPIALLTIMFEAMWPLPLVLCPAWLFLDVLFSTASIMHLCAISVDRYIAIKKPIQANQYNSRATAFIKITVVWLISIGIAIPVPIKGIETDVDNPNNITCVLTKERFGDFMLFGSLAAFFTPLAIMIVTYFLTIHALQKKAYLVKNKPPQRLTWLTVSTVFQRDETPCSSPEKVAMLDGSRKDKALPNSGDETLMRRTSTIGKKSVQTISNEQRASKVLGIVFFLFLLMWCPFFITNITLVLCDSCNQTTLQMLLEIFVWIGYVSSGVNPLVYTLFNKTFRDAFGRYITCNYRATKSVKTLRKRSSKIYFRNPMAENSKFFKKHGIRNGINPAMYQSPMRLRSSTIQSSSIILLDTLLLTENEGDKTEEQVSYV

human 5-HT4 receptor [3] = molecular target: T2, human 5-HT4 receptor (Homo sapiens, UniProt Q13639); settings: cited from earlier work
human 5-HT2C receptor [4] = molecular target: T3, human 5-HT2C receptor (Homo sapiens, UniProt P28335); settings: cited from earlier work
T3 sequence (P28335 33-458): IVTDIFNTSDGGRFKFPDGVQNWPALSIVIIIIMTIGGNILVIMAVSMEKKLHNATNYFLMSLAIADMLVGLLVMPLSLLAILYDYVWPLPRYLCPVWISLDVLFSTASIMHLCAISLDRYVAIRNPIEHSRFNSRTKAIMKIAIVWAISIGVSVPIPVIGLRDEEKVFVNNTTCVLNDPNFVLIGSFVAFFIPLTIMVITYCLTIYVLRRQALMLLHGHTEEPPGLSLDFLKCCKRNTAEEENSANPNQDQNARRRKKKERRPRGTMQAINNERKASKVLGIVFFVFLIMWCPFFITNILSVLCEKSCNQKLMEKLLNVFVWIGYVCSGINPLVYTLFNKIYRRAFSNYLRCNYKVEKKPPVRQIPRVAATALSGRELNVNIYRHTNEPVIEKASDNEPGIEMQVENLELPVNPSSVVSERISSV

5-HT2B receptor [5] = molecular target: T1, 5-HT2B receptor; settings: cited from earlier work; remark: listed apart in the source
Target sequence in this assay (P41595 whole entry): as the sequence (P41595 whole entry) above

human 5-HT2A receptor [6] = molecular target: T4, human 5-HT2A receptor (Homo sapiens, UniProt P28223); settings: cited from earlier work
human 5-HT2A receptor [7] = molecular target: T4, human 5-HT2A receptor; settings: cited from earlier work; remark: listed apart in the source
human 5-HT2C receptor [8] = molecular target: T3, human 5-HT2C receptor; settings: cited from earlier work; remark: listed apart in the source
human 5-HT4 receptor [9] = molecular target: T2, human 5-HT4 receptor; settings: marked #; cited from earlier work
5-HT2B receptor [10] = molecular target: T1, 5-HT2B receptor; settings: cited from earlier work; remark: listed apart in the source
Target sequence in this assay (P41595 whole entry, looked up): as the sequence (P41595 whole entry) above

[11] = tested on: 5-HT receptor in human colon longitudinal muscle; assay: 5-HT-induced potentiation of electrically stimulated contractions of human colon longitudinal muscle strips; format: cell-based

T4 sequence (P28223 whole entry): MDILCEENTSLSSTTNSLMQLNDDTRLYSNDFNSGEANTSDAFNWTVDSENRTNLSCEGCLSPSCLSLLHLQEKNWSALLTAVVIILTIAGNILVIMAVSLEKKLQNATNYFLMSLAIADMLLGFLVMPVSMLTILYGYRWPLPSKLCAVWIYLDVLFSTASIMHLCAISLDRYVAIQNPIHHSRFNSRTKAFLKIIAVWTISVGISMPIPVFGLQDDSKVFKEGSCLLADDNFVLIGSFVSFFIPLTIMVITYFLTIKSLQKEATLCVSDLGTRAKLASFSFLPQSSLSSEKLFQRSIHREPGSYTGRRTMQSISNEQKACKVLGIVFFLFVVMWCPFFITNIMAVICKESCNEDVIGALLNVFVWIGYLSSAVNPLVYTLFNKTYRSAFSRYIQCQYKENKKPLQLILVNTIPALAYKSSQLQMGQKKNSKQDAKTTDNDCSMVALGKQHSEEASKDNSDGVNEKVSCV
Chain of 5-HT receptor in human colon longitudinal muscle (Homo sapiens, UniProt P41595) (P41595 whole entry): as the sequence (P41595 whole entry) above
T2 sequence (Q13639 whole entry): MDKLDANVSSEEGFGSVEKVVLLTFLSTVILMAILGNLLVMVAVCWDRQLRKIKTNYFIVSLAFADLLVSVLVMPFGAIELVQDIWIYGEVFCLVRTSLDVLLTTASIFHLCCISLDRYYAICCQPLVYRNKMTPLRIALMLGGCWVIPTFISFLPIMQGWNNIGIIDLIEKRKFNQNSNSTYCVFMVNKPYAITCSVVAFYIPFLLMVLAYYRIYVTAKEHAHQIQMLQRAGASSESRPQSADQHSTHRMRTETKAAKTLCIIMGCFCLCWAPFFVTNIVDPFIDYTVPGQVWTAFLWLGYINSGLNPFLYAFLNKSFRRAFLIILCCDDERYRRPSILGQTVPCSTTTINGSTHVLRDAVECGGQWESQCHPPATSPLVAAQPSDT

## COc1ccc2[nH]cc(CCN)c2c1 [5-MeOT]
[1]
  pEC50 for agonists at the 5-HT receptor in colon: 6.8 ± 0.2
5-HT2B receptor [2]
  pEC50 for agonists at human 5-HT2B receptor: 7.6
Human 5-HT4 receptor [3]
  pEC50 for agonists at human 5-HT4 receptor: 6.2

## CC(N)Cc1c[nH]c2ccc(O)cc12 (stereo not drawn) [Alpha-Me5-HT]
[1]; human colon longitudinal muscle, mean ± s.e.mean, at least 3 donors
  pEC50 for agonists at the 5-HT receptor in colon: 8.5 ± 0.1
5-HT2B receptor [2]
  pEC50 for agonists at human 5-HT2B receptor: 8.4
Human 5-HT4 receptor [3]
  pEC50 for agonists at human 5-HT4 receptor: 6.2

## O=C(c1ccc(F)cc1)C1CCN(CCn2c(=O)[nH]c3ccccc3c2=O)CC1 [Ketanserin]
Human 5-HT4 receptor [3]; marked *
  pKB or pA2 for antagonists (*) at human 5-HT4 receptor: 4.7*

## CSc1ccc2c(c1)C(N1CCN(C)CC1)Cc1ccccc1S2 (stereo not shown) [Methiothepin]
Human 5-HT4 receptor [3]
  pKB or pA2 for antagonists (*) at human 5-HT4 receptor: <6.0*

## CC[C@@H](CO)NC(=O)[C@@H]1C=C2c3cccc4c3c(cn4C)C[C@H]2N(C)C1 [Methysergide]
Human 5-HT2C receptor [4]
  pKB or pA2 for antagonists (*) at human 5-HT2C receptor: 8.9*
Human 5-HT4 receptor [3]; marked *
  pKB or pA2 for antagonists (*) at human 5-HT4 receptor: <5.0*

## CC(C)c1cc(-c2ccc(F)c3ccccc23)nc(N)n1 [RS 127445, 2-amino-4-(4-fluoronaphth-1-yl)-6-isopropylpyrimidine]
[1]
  Kb: 0.398 nM
Human 5-HT2C receptor [4]; marked *
  pKB or pA2 for antagonists (*) at human 5-HT2C receptor: 6.4*
5-HT2B receptor [5]; marked #
  affinity from binding data (#) at human 5-HT2B receptor: 9.5^#

## Cc1cc(NC(=O)Nc2ccc3c(ccn3C)c2)sn1 [SB 204741, N-(1-methyl-5-indolyl)-N′-(3-methyl-5-isothiazolyl) urea]
[1]
  Kb: 158 nM
  antagonist potency against 5-HT response in human colon: 6.8
Human 5-HT2A receptor [6]
  pKB or pA2 for antagonists (*) at human 5-HT2A receptor: <5.0*
5-HT2B receptor [2]; marked *
  pKB or pA2 for antagonists (*) at human 5-HT2B receptor: 7.0*
Human 5-HT4 receptor [3]; neither * nor # printed
  affinity at human 5-HT4 receptor: <5.0

## Cn1ccc2cc3c(cc21)CCN3C(=O)Nc1cccnc1 [SB 206553, 5-methyl-1-(3-pyridylcarbamoyl)-1,2,3,5-tetrahydropyrrolo [2,3-f]indole]
[1]
  Kb: 3.16 nM
  antagonist potency against 5-HT response in human colon: 8.5
5-HT2B receptor [2]
  pKB or pA2 for antagonists (*) at human 5-HT2B receptor: 9.0*
Human 5-HT2A receptor [7]; marked #
  affinity from binding data (#) at human 5-HT2A receptor: 6.0^#

## Cc1cc2c(cc1Cl)N(C(=O)Nc1ccc(Oc3cccnc3C)nc1)CC2 [SB 242084]
[1]; human colon longitudinal muscle, at least 3 concentrations (methiothepin a single concentration), at least 3 donors
  pKB estimate for antagonists at the 5-HT receptor in colon: 6.3 ± 0.2
Human 5-HT2A receptor [7]
  affinity from binding data (#) at human 5-HT2A receptor: 6.8^#
5-HT2B receptor [5]
  affinity from binding data (#) at human 5-HT2B receptor: 7.0^#
Human 5-HT2C receptor [8]
  affinity from binding data (#) at human 5-HT2C receptor: <6.0^#
Human 5-HT4 receptor [9]
  affinity from binding data (#) at human 5-HT4 receptor: <5.0^#

## Cl.Cn1ccc2cc(NC(=O)Nc3cccnc3)ccc21 [SB-200646, N-(1-methyl-5-indolyl)-N′-(3-pyridyl)urea hydrochloride]
5-HT2B receptor [10]
  selectivity between 5-HT2B and 5-HT2C receptors: Non-selective

## Cc1cc2c(cc1Cl)N(C(=O)Nc1cccc3ncccc13)CC2 [SB-215505, 6-chloro-5-methyl-N-(5-quinolyl)-2,3-dihydro-1H-indole-1-carboxamide]
5-HT2B receptor [10]
  potency as 5-HT2B receptor antagonist: 9.9
  selectivity for 5-HT2B over 5-HT2C and 5-HT2A receptors: 100 fold

## COC(=O)[C@@H]1[C@H]2C[C@H]3c4[nH]c5ccccc5c4CCN3C[C@@H]2CC[C@@H]1O [Yohimbine]
Human 5-HT2C receptor [4]
  affinity at human 5-HT2C receptor: <5.0

## CN1[C@@H]2CC[C@H]1C[C@@H](OC(=O)C(CO)c1ccccc1)C2 (stereo partly shown) [atropine]
[11]
  effect on contractile responses of colon smooth muscle to electrical stimulation: inhibited

## NC1=N[C@H](O)[C@H]2[C@H]3O[C@]4(O)O[C@@H]([C@@H](O)[C@@]2(N1)[C@@H]4O)[C@]3(O)CO [tetrodotoxin]
[11]
  effect on contractile responses of colon smooth muscle to electrical stimulation: inhibited

## N-(1-methyl-1H-indol-5-yl)N′-(-bezyl)-2,3,4,9-tetrahydro-1H-beta-carboline [LY-23728]
5-HT2B receptor [10]
  selectivity for 5-HT2B over 5-HT2C and 5-HT2A receptors: 100 fold
